The source of these data is ChEMBL document CHEMBL1148655, “Anti-angiogenic activity of basic-type, selective cyclooxygenase (COX)-1 inhibitors” (2006).

The subject of experiment [1] is HUVEC. The experiment in a line: Cytotoxicity against HUVEC cell line. The following applies: Homo sapiens, read-out: LD50 (the source's name). Type of experiment: functional.
For experiment [2], the system named is HUVEC. The experiment can be described thus: Antiangiogenic activity against HUVEC cells by tube formation assay at 100 uM. Type of experiment: functional, Homo sapiens. The following applies: for inhibition at 100 µM: Homo sapiens, HUVEC.
Experiment [3] deals with Prostaglandin G/H synthase 1 (Homo sapiens) (UniProt P23219). The following applies: at 30 µM.
Prostaglandin G/H synthase 1 (Homo sapiens), sequence (P23219 whole entry): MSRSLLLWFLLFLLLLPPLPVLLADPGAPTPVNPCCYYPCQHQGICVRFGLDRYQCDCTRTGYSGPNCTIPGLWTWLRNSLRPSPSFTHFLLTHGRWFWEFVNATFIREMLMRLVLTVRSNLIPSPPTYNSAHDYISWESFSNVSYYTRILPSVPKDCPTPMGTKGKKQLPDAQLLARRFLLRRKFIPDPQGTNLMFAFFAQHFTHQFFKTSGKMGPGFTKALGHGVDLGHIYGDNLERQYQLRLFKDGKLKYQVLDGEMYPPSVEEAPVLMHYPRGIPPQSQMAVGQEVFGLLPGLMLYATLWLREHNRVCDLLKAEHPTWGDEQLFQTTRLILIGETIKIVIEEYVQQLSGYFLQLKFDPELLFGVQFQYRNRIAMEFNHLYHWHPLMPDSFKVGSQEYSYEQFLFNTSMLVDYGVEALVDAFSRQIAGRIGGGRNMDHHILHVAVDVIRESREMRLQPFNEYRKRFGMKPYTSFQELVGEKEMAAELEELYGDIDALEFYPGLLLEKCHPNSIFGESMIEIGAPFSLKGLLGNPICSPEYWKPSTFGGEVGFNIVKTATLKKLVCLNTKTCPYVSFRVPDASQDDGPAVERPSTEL
Description: Inhibition of COX1 at 30 uM
Experiment [4] deals with T1, Prostaglandin G/H synthase 2 (Homo sapiens) (UniProt P35354).
T1 sequence (whole entry): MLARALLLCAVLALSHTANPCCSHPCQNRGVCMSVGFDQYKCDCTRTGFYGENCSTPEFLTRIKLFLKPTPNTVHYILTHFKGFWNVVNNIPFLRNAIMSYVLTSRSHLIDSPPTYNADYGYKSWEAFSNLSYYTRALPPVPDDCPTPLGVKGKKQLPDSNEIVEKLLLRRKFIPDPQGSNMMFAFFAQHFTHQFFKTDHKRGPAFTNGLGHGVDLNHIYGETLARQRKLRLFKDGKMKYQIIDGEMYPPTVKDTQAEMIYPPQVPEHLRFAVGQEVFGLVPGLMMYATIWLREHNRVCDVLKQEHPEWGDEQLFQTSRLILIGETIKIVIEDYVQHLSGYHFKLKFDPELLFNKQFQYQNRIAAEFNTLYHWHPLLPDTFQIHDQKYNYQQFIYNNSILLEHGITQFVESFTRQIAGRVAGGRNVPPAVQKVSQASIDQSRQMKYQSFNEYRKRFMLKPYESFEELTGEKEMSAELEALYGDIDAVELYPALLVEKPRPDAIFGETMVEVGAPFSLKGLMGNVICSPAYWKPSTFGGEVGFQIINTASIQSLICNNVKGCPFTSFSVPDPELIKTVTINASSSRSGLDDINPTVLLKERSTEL
The following applies: at 30 µM.
Description: Inhibition of COX2 at 30 uM

The structures appear in SMILES notation. Activity calls are given as the source filed them. No cut-off for these calls is given here.

Take `CC(C)(C)c1cc(C(=O)n2ccc3cc(N)ccc32)cc(C(C)(C)C)c1`: the CC50 in the experiment on HUVEC [1] was above 100 µM. Regarding `CC(C)Cc1ccc(C(C)C(=O)O)cc1` (stereo not drawn) [IBUPROFEN], in the experiment on HUVEC [2], 100 µM produced 35% inhibition. In the case of `Nc1ccc2c(ccn2C(=O)c2cc(Cl)cc(Cl)c2)c1`, in the experiment with HUVEC [1], the CC50 is above 100 µM. Still for that read-out and setting: the same measure for `Cc1cc(C)cc(C(=O)N2CCc3cc([N+](=O)[O-])ccc32)c1`: above 100 µM.

For the molecule `Cc1cc(C)cc(C(=O)n2ccc3cc(N)ccc32)c1`, the inhibition (in general, the change of the read-out against control, counted positive when it falls) at 100 µM in the experiment on HUVEC [2] amounted to 50%. Also, in the experiment with HUVEC [1], the CC50 is above 100 µM. Regarding `O=C(c1cc(Cl)cc(Cl)c1)N1CCc2cc([N+](=O)[O-])ccc21`, in the experiment on HUVEC [1], the CC50 is above 100 µM. On to `Nc1ccc2c(ccn2C(=O)c2cc(C(F)(F)F)cc(C(F)(F)F)c2)c1`, for which, in the experiment on HUVEC [1], the CC50 is above 100 µM. In the experiment with HUVEC [2], `Cc1cc(C)cc(N2CCc3cc(N)ccc32)c1` showed an Activity of 75%. `CC(C)(C)c1cc(C(=O)N2CCc3cc([N+](=O)[O-])ccc32)cc(C(C)(C)C)c1`: the CC50 with HUVEC [1] was above 100 µM. On to `Cc1cc(C)cc(C(=O)N2CCc3cc(N)ccc32)c1`, for which the CC50 in the experiment on HUVEC [1] was above 100 µM.

In the case of `Cc1cc(C)cc(C(=O)n2ccc3cc([N+](=O)[O-])ccc32)c1`, the CC50 in the experiment with HUVEC [1] is above 100 µM.

In the case of `CC(C)(C)c1cc(C(=O)N2CCc3cc(N)ccc32)cc(C(C)(C)C)c1`, the CC50 in the experiment on HUVEC [1] is above 100 µM. As to `CS(=O)(=O)c1ccc(-c2cc(Br)sc2-c2ccc(F)cc2)cc1` [DUP-697], the inhibition result in experiment [3] is “inactive”. The molecule further returned an inhibition at 100 µM in the experiment with HUVEC [2] of 25%.

In the case of `Nc1ccc2c(c1)CCN2C(=O)c1cc(C(F)(F)F)cc(C(F)(F)F)c1`, the CC50 with HUVEC [1] is above 100 µM. `CC(=O)Oc1ccccc1C(=O)O`: the inhibition in experiment [3] turned out to be 21.9%; in experiment [4] it was 15.7%. With `O=C(c1cc(C(F)(F)F)cc(C(F)(F)F)c1)N1CCc2cc([N+](=O)[O-])ccc21`, in the experiment on HUVEC [1], the CC50 is above 100 µM.

Consider `O=C(c1cc(C(F)(F)F)cc(C(F)(F)F)c1)n1ccc2cc([N+](=O)[O-])ccc21`, for which the CC50 with HUVEC [1] was above 100 µM.

In the case of `CC(C)(C)c1cc(C(=O)n2ccc3cc([N+](=O)[O-])ccc32)cc(C(C)(C)C)c1`, the CC50 in the experiment with HUVEC [1] was above 100 µM. On the same count and under the same terms, the same measure for `O=C(c1cc(Cl)cc(Cl)c1)n1ccc2cc([N+](=O)[O-])ccc21`: above 100 µM; for `Nc1ccc2c(c1)CCN2C(=O)c1cc(Cl)cc(Cl)c1`: above 100 µM.
